Experiments:
Test in all cases: KinaseProfiler Assay
MSSK1(h) = MSSK1(h) (Homo sapiens, UniProt Q9UPE1)
Lck(h) = Lck(h) (Homo sapiens, UniProt P06239)
IKKα(h) = target: T1, IKKα(h) (Homo sapiens, UniProt O15111)
T1 sequence (O15111 1-745): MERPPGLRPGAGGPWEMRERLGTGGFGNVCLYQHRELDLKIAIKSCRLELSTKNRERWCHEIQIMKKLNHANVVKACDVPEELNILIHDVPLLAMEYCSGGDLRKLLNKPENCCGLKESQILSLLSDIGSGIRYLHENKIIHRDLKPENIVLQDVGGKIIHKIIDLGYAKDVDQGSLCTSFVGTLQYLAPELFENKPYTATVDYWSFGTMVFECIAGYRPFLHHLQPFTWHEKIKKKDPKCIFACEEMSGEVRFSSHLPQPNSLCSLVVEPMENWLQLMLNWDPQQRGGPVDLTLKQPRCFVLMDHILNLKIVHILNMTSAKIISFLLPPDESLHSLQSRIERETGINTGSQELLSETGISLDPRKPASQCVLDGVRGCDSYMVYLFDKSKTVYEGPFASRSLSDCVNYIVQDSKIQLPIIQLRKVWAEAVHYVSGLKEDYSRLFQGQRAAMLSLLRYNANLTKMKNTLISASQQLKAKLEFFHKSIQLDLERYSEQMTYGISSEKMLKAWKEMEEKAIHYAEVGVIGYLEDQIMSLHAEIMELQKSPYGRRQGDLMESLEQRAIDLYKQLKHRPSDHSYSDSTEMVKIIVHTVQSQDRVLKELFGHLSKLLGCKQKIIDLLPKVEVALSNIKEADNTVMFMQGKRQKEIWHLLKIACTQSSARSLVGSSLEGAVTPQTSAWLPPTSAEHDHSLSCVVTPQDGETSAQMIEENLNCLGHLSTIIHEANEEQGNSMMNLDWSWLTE

Txk(h) = target: T2, Txk(h) (Homo sapiens, UniProt P42681)
T2 sequence (P42681 1-527): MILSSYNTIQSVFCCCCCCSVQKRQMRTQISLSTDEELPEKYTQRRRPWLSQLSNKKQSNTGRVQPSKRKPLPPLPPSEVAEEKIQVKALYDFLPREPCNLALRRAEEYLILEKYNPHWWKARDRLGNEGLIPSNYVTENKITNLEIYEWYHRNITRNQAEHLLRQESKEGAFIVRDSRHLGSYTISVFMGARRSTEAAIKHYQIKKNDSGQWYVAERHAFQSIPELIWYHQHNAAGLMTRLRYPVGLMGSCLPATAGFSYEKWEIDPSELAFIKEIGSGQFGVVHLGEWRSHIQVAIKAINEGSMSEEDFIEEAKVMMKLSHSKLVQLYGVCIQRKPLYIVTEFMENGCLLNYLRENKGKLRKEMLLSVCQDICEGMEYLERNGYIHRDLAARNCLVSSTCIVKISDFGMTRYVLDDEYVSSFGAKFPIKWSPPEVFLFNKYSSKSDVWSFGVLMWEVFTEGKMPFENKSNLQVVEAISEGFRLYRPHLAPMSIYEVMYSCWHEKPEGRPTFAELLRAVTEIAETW

CK1γ1(h) = CK1γ1(h) (Homo sapiens, UniProt Q9HCP0)
Sequence of CK1γ1(h) (Q9HCP0 whole entry): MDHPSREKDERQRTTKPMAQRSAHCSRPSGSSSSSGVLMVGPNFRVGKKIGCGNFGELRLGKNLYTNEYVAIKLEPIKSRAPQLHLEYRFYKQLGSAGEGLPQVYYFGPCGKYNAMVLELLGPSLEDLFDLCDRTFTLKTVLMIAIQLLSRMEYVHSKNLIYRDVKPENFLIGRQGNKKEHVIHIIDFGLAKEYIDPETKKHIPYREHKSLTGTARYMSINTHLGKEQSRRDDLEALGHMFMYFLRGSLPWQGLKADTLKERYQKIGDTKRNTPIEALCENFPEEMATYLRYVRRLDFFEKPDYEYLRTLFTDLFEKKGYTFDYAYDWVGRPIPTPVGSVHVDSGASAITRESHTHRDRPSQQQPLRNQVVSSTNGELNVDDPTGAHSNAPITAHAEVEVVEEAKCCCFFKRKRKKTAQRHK

TSSK1(h) = target: T3, TSSK1(h) (Homo sapiens, UniProt Q9BXA7)
T3 sequence (Q9BXA7 1-367): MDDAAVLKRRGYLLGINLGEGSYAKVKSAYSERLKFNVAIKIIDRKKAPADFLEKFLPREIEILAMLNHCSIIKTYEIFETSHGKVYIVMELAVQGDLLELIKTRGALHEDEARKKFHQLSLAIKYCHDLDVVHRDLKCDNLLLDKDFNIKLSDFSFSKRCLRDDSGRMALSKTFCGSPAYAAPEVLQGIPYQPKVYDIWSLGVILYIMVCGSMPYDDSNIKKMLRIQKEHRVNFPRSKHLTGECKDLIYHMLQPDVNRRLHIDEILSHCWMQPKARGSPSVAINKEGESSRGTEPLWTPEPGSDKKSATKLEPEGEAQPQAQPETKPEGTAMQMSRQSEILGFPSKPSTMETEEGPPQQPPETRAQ

PAR-1Bα(h) = PAR-1Bα(h) (Homo sapiens, UniProt Q7KZI7)
Sequence of PAR-1Bα(h) (Q7KZI7 1-725 isoform Q7KZI7-4): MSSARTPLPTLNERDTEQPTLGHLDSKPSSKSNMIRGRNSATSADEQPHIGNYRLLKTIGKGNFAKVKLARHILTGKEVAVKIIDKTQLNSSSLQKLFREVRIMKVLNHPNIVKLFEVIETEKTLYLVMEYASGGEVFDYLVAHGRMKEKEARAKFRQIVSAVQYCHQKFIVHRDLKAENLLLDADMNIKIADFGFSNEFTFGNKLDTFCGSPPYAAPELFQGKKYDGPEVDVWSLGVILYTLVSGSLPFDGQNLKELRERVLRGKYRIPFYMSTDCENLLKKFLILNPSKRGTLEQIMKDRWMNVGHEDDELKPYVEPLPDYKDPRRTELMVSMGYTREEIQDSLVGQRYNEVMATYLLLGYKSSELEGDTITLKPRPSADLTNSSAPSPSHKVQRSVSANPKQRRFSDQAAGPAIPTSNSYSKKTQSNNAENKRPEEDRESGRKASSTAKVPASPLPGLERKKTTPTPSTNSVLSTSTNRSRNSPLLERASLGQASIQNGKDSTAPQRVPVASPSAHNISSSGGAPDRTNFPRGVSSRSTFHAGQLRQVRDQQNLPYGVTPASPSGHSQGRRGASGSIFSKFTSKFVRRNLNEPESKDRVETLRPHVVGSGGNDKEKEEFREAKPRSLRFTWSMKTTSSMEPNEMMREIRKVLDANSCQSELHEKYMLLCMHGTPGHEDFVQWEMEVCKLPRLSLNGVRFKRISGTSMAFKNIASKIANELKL

MLCK(h) = target: MLCK(h)
CLK2(h) = CLK2(h) (Homo sapiens, UniProt P49760)
Sequence of CLK2(h) (P49760 whole entry): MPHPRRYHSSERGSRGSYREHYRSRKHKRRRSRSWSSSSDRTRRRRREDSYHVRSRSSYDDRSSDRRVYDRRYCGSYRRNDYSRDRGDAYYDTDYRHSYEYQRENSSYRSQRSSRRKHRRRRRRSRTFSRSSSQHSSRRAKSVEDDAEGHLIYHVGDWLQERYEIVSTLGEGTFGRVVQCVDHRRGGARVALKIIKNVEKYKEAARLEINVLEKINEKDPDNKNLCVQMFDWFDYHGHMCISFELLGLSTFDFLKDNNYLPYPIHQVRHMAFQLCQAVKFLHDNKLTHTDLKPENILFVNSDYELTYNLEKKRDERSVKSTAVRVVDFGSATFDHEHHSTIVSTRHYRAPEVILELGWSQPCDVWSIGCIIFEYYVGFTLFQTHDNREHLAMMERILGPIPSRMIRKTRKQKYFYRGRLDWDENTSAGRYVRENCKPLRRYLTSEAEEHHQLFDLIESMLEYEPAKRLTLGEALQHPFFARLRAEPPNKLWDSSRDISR

Sequence of MSSK1(h) (Q9UPE1 whole entry): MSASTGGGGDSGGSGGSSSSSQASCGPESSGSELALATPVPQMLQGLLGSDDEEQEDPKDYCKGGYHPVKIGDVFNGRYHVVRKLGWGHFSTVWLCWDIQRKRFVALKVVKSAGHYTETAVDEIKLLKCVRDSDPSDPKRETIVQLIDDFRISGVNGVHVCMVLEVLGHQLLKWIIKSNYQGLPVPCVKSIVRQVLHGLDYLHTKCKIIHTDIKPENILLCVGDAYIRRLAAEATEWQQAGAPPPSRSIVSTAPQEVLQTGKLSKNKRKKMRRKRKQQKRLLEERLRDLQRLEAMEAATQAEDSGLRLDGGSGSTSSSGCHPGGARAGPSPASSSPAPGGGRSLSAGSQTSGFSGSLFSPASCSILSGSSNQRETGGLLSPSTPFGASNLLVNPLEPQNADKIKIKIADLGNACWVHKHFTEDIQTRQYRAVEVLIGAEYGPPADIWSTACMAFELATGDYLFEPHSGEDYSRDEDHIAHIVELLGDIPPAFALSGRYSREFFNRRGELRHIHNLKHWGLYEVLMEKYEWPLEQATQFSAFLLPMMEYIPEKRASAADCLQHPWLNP
Sequence of Lck(h) (P06239 whole entry): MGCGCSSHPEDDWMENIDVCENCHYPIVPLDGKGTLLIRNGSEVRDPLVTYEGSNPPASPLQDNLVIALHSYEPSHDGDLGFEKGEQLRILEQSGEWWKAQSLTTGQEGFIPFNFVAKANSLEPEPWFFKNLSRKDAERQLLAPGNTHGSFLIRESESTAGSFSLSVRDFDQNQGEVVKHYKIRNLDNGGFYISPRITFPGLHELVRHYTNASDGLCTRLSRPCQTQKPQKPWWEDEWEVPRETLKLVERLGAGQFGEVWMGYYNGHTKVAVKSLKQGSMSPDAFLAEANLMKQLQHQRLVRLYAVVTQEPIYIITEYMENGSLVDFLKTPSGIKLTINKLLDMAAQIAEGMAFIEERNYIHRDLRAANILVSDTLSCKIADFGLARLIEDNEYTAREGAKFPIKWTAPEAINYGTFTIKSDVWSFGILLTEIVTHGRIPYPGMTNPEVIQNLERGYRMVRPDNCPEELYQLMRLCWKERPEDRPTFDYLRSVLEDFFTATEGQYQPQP

For `CC(C)CCC(=O)[C@]1(O)C(O)=C(C(=O)C(C)C)C(=O)[C@H]1CCC(C)C` [TH2, tetrahydroiso-cohumulone], the kinase inhibition (MSSK1(h); 1 μg/ml) was 105% of control, the kinase inhibition (MSSK1(h); 5 μg/ml) was 84% of control and the kinase inhibition (MSSK1(h); 25 μg/ml) was 43% of control. The kinase inhibition (MSSK1(h); 50 μg/ml) was 50% of control, the kinase inhibition (MSSK1(h); 100 μg/ml) was 39% of control and the kinase inhibition (Lck(h); 1 μg/ml) was 106% of control. For the same compound, the kinase inhibition (Lck(h); 5 μg/ml) was 111% of control, the kinase inhibition (Lck(h); 25 μg/ml) was 86% of control and the kinase inhibition (Lck(h); 50 μg/ml) was 83% of control. The kinase inhibition (Lck(h); 100 μg/ml) was 78% of control, the kinase inhibition (IKKα(h); 1 μg/ml) was 99% of control and the kinase inhibition (IKKα(h); 5 μg/ml) was 108% of control. The kinase inhibition (IKKα(h); 25 μg/ml) was 114% of control, the kinase inhibition (IKKα(h); 50 μg/ml) was 114% of control and the kinase inhibition (IKKα(h); 100 μg/ml) was 120% of control. The kinase inhibition (Txk(h); 1 μg/ml) was 114% of control, the kinase inhibition (Txk(h); 5 μg/ml) was 121% of control and the kinase inhibition (Txk(h); 25 μg/ml) was 121% of control. The kinase inhibition (Txk(h); 50 μg/ml) was 110% of control, the kinase inhibition (Txk(h); 100 μg/ml) was 107% of control and the kinase inhibition (CK1γ1(h); 1 μg/ml) was 100% of control. The kinase inhibition (CK1γ1(h); 5 μg/ml) was 101% of control, the kinase inhibition (CK1γ1(h); 25 μg/ml) was 88% of control and the kinase inhibition (CK1γ1(h); 50 μg/ml) was 73% of control. The kinase inhibition (CK1γ1(h); 100 μg/ml) was 48% of control, the kinase inhibition (TSSK1(h); 1 μg/ml) was 105% of control and the kinase inhibition (TSSK1(h); 5 μg/ml) was 97% of control. For the same compound, the kinase inhibition (TSSK1(h); 25 μg/ml) was 96% of control, the kinase inhibition (TSSK1(h); 50 μg/ml) was 91% of control and the kinase inhibition (TSSK1(h); 100 μg/ml) was 86% of control. The kinase inhibition (PAR-1Bα(h); 1 μg/ml) was 109% of control, the kinase inhibition (PAR-1Bα(h); 5 μg/ml) was 113% of control and the kinase inhibition (PAR-1Bα(h); 25 μg/ml) was 114% of control. For the same compound, the kinase inhibition (PAR-1Bα(h); 50 μg/ml) was 116% of control, the kinase inhibition (PAR-1Bα(h); 100 μg/ml) was 88% of control and the kinase inhibition (MLCK(h); 1 μg/ml) was 98% of control. The kinase inhibition (MLCK(h); 5 μg/ml) was 96% of control, the kinase inhibition (MLCK(h); 25 μg/ml) was 105% of control and the kinase inhibition (MLCK(h); 50 μg/ml) was 93% of control. The kinase inhibition (MLCK(h); 100 μg/ml) was 86% of control, the kinase inhibition (CLK2(h); 1 μg/ml) was 103% of control and the kinase inhibition (CLK2(h); 5 μg/ml) was 100% of control. For the same compound, the kinase inhibition (CLK2(h); 25 μg/ml) was 110% of control, the kinase inhibition (CLK2(h); 50 μg/ml) was 101% of control and the kinase inhibition (CLK2(h); 100 μg/ml) was 96% of control.
